Results: patent US8778727B2, “Method of manufacturing organic electroluminescence display device” (Canon Kabushiki Kaisha, priority 2011, dated 2014)

How the values were obtained:
[1] = Etching (dissolution) of deposited layers by IPA/water mixed solvent; type: physicochemical; settings: IPA 60 wt %; for etching rate: deposited film
From the text: In the present invention, a larger etching rate means a higher dissolution rate. In addition, a larger etching rate means a higher solubility of a layer having a material of interest in the solvent (polar solvent).
FIG. 3 is a graph illustrating thickness changes in the compound 1 and the compound A2 over an etching time. Here, FIG. 3 illustrates the results of the etching of the respective layers when a mixed solvent obtained by mixing isopropyl alcohol (IPA) and water so that IPA may account for 60 wt % (hereinafter, sometimes referred to as “IPA/water mixed solvent”) is used as a solvent formed of a polar solvent.
When the etching rates of the respective layers are calculated with their etching conditions made identical to each other, the etching rate of the layer A is 0.008 nm/sec but the etching rate of the layer B is 0.87 nm/sec, that is, a ratio of the latter to the former is about 100.
Here, a ratio (n) between the etching rates of the organic compound layer (corresponding to the layer A) and the release layer (corresponding to the layer B) by the polar solvent can be represented like the following equation.
Performed next was a second processing step of removing a part of the release layer 30 with a mixed solvent obtained by mixing water and IPA so that an IPA concentration was 60 wt % to reduce the thickness of the release layer 30. It should be noted that as the etching rate of the compound (phenanthroline derivative represented by the formula (2)) constituting the release layer 30 in this example was 0.9 nm/sec, part of the release layer 30 was removed through immersion in the mixed solvent for 530 seconds so that the thinning was performed (FIG. 2M). As a result of the second processing step, the thickness of the release layer 30 became 20 nm. In addition, each release layer subjected to the thinning in the second processing step functions as the charge transport layer (electron transport layer) 23a, 23b, or 23c. Next, vacuum heating was performed at 80° C. so that the solvent remaining on the charge transport layer was removed.

[2] = Solubility in IPA/water mixed solvent (FIG. 4); type: physicochemical; settings: IPA concentration 80 wt %; per 1 g solvent
From the text: The solubility of a compound as a constituent material for each layer in the IPA/water mixed solvent varies depending on the weight ratio of IPA in the mixed solvent. FIG. 4 is a graph illustrating the solubilities of the compound 1 (condensed polycyclic hydrocarbon compound) and the compound A2 (heterocyclic compound) in the IPA/water mixed solvent (polar solvent). Here, in the graph of FIG. 4, the axis of abscissa indicates the weight percent concentration of IPA in the IPA/water mixed solvent, and the axis of ordinate indicates the amount of the condensed polycyclic hydrocarbon compound or heterocyclic compound to dissolve in 1 g of the solvent.

Structure (SMILES) | etching rate [1] | thickness change over etching time (FIG. 3) [1] | ratio (n) of etching rate of release layer (layer B, compound A2) to organic compound layer (layer A, compound 1) ([1]; identical etching conditions) | etching rate ([1]; listed as formula (2)) | amount dissolving in 1 g of the IPA/water mixed solvent [2]
c1ccc(-c2cc(-c3ccccc3)cc(-c3cccc(-c4cccc(-c5ccc6c7ccccc7c7ccccc7c6c5)c4)c3)c2)cc1 [compound B1] | 1.3 nm/s |  |  |  | 
CC1(C)c2ccccc2-c2ccc(-c3ccc4ccc5ccc(-c6ccc7c(c6)C(C)(C)c6ccccc6-7)nc5c4n3)cc21 [compound A2] | 0.87 nm/s | reduces over time | about 100 | 0.9 nm/s | 73 µg
O=C1c2ccccc2OC2C=CC(c3cccc(-c4cccc(-c5cc(-c6cccc(-c7ccccc7)c6)cc(-c6cccc(C7C=CC=CC7)c6)c5)c4)c3)=CC12 (stereo not shown) [compound C1] | 1.5 nm/s |  |  |  | 
CC1(C)c2cc(-c3ccc4ccc5cccc6ccc3c4c56)ccc2-c2ccc(-c3ccc4ccc5cccc6ccc3c4c56)cc21 [compound 1] | 0.008 nm/s | nearly no thickness reduction |  |  | 5 µg
